{"source": "patent US20170368015A1", "about": "“NOVEL COMPOUND AND ANTIVIRAL AGENT CONTAINING SAME AS ACTIVE INGREDIENT” (NATIONAL UNIVERSITY CORPORATION CHIBA UNIVERSITY, priority 2014, published 2017)", "data": [{"tested_on": "RS virus", "assay": "Evaluation of anti-RS viral activity (MTT assay kit; viable cell count of RS virus-infected Hep2 cells)", "assay_type": "cell-based, RS virus (human respiratory syncytial virus)", "details": "additive amount 80 μM; Hep2 cells, RS virus 1 MOI, cultured 72 hours; DMSO control = 100", "experimental": "(§1) The aforementioned Compound 1 (No. 150) to Compound 22 (No. 306) were measured for anti-RS viral activity according to the protocol of MTT assay kit (CellTiter-Glo (registered trade name) Assay, Promega Corporation).\n(§2) In a 96-well plate, Hep2 cells were seeded at 1×10^3 cells per well, and each of compounds in the amount shown in Table 7, and RS virus having an infectivity titer of 1 MOI were added, and cultured for 72 hours, and then a viable cell count was determined. As a control, a well containing DMSO at 25 μM (when the additive amount of the compound is 80 μM) or 5 μM (when the additive amount of the compound is 16 μM) in place of a compound was prepared.", "units": {"Survival Rate (%)": "%"}, "values": [{"compound": "COC(=O)[C@@H]1N[C@H](c2cccc([C@H]3N[C@@H](C(=O)OC)[C@H](c4ccccc4)[C@H]3[N+](=O)[O-])c2)[C@H]([N+](=O)[O-])[C@H]1c1ccccc1", "note": "[Compound 2, dimethyl 5,5′-(1,3-phenylene) (2R, 2′R, 3S, 3′S, 4R, 4′R, 5R, 5′R)-bis(4-nitro-3-phenylpyrrolidine-2-carboxylate)]", "Survival Rate (%)": 332}]}, {"tested_on": "RS virus", "assay": "Evaluation of anti-RS viral activity (MTT assay kit; viable cell count of RS virus-infected Hep2 cells)", "assay_type": "cell-based, RS virus (human respiratory syncytial virus)", "details": "human respiratory syncytial virus, HEp-2, 72 h, read-out: Survival Rate (%)", "experimental": "as §1, §2", "units": {"viability at 16 µM": "%", "viability at 80 µM": "%"}, "values": [{"compound": "COc1ccc(NCCNc2ccc(OC)cc2)cc1", "note": "[Compound 6, N1,N2-bis(4-methoxyphenyl)ethane-1,2-diamine]", "viability at 16 µM": 472}, {"compound": "c1ccc(-c2nnc(-c3ccccc3)o2)cc1", "note": "[Compound 21, 2,5-diphenyl-1,3,4-oxadiazole]", "viability at 80 µM": 248}]}, {"tested_on": "RS virus", "assay": "Evaluation of anti-RS viral activity (MTT assay kit; viable cell count of RS virus-infected Hep2 cells)", "assay_type": "cell-based, RS virus (human respiratory syncytial virus)", "details": "human respiratory syncytial virus, HEp-2; additive amount 16 μM; Hep2 cells, RS virus 1 MOI, cultured 72 hours; DMSO control = 100; read-out: Survival Rate (%)", "experimental": "as §1, §2", "units": {"viability at 16 µM": "%"}, "values": [{"compound": "c1ccc(NCCNc2ccccc2)cc1", "note": "[Compound 5, N1,N2-diphenylethane-1,2-diamine]", "viability at 16 µM": 471}, {"compound": "Clc1ccc(NCCNc2ccc(Cl)cc2)cc1", "note": "[Compound 7, N1,N2-bis(4-chlorophenyl)ethane-1,2-diamine]", "viability at 16 µM": 405}, {"compound": "O=P12c3ccccc3CN1[C@H](CNc1ccccc1)CCN2c1ccccc1", "note": "(stereo partly drawn) [Compound 8, (4S,11R)-1-phenyl-4-((phenylamino)methyl)-1,2,3,4,6-pentahydrobenzo[3,4][1,2]azaphosphoro [1,2-a][1,3,2]diazaphosphinine 11-oxide]", "viability at 16 µM": 815}, {"compound": "Cc1ccc2c(c1)[C@](C[N+](=O)[O-])(c1c[nH]c3c(C)cccc13)C(=O)N2C", "note": "[Compound 10, (S)-1,5-dimethyl-3-(7-methyl-1H-indole-3-yl)-3-(nitromethyl)indoline-2-one]", "viability at 16 µM": 294}, {"compound": "c1ccc(CN2[C@H](c3cccc([C@@H]4N[C@@H](c5ccccc5)[C@H](c5ccccc5)N4Cc4ccccc4)n3)N[C@@H](c3ccccc3)[C@@H]2c2ccccc2)cc1", "note": "[Compound 11, 2,6-bis((2R,4S,5S)-1-benzyl-4,5-diphenylimidazolidine-2-yl)pyridine]", "viability at 16 µM": 274}, {"compound": "CC(C)(C)OC(=O)[C@H]1N[C@H](c2ccccc2)[C@@]2(C(=O)Nc3ccccc32)[C@@H]1c1ccc(Br)cc1", "note": "[Compound 12, tert-butyl(2′R,3R,4′S,5′S)-4′-(4-bromophenyl)-2-oxo-2′-phenylspiro[indoline-3,3′-pyrrolidine]-5′-carboxylate]", "viability at 16 µM": 475}, {"compound": "Cc1ccc([C@@H]2[C@@H](C(=O)OC(C)(C)C)N[C@H](c3ccccc3)[C@@]23C(=O)Nc2ccccc23)cc1", "note": "[Compound 13, tert-butyl(2′R,3R,4′S,5′S)-2-oxo-2′-phenyl-4′-(p-tolyl)spiro[indoline-3,3′-pyrrolidine]-5′-carboxylate]", "viability at 16 µM": 406}, {"compound": "C=CCN1C(=O)/C(=C/[N+](=O)[O-])c2ccccc21", "note": "[Compound 14, (E)-1-allyl-3-(nitromethylene)indoline-2-one]", "viability at 16 µM": 409}, {"compound": "Oc1c(Br)cc(Br)cc1/C=N/[C@H](c1ccccc1)[C@@H](c1ccccc1)N1Cc2ccccc2C1", "note": "[Compound 15, 2,4-dibromo-6-((E)-(((1R,2R)-2-(isoindoline-2-yl)-1,2-diphenylethyl)imino)methyl)phenol]", "viability at 16 µM": 393}, {"compound": "O=C1CCCCCC1C(Nc1ccc(OC(F)(F)F)cc1)c1ccccc1", "note": "(stereo not drawn) [Compound 16, 2-(phenyl((4-(trifluoromethoxy)phenyl)amino)methyl)cycloheptane-1-one]", "viability at 16 µM": 294}, {"compound": "CCOC(=O)C1=CN2C(=O)CCN2[C@@H]1C1CCCCC1", "note": "[Compound 19, ethyl(R)-1-cyclohexyl-5-oxo-6,7-dihydro-1H,5H-pyrazolo[1,2-a]pyrazole-2-carboxylate]", "viability at 16 µM": 209}]}, {"tested_on": "RS virus", "assay": "Evaluation of anti-RS viral activity (MTT assay kit; viable cell count of RS virus-infected Hep2 cells)", "assay_type": "cell-based, RS virus (human respiratory syncytial virus)", "details": "human respiratory syncytial virus, HEp-2; additive amount 80 μM; Hep2 cells, RS virus 1 MOI, cultured 72 hours; DMSO control = 100; read-out: Survival Rate (%)", "experimental": "as §1, §2", "units": {"viability at 80 µM": "%"}, "values": [{"compound": "COC(=O)C1=C(c2ccccc2)C(c2ccccc2)(C(C#N)C#N)C(C(=O)OC)=C1O", "note": "(stereo not drawn) [Compound 1, dimethyl 5-(dicyanomethyl)-2-hydroxy-4,5-diphenylcyclopenta-1,3-diene-1,3-dic arboxylate]", "viability at 80 µM": 359}, {"compound": "N[C@@H](C(=O)O)c1cccc2ccccc12", "note": "[Compound 4, (R)-2-amino-2-(naphthalene-1-yl) acetic acid]", "viability at 80 µM": 450}, {"compound": "CN1C(=O)[C@@](C[N+](=O)[O-])(c2c[nH]c3ccccc23)c2ccccc21", "note": "[Compound 9, (S)-3-(1H-indole-3-yl)-1-methyl-3-(nitromethyl)indoline-2-one]", "viability at 80 µM": 276}, {"compound": "CCOC(=O)C1=CN2C(=O)CCN2[C@@H]1c1cccc(Cl)c1", "note": "[Compound 17, ethyl(R)-1-(3-chlorophenyl)-5-oxo-6,7-dihydro-1H,5H-pyrazolo[1,2-a]pyrazole-2-carboxylate]", "viability at 80 µM": 264}, {"compound": "CCOC(=O)C1=CN2C(=O)CCN2[C@@H]1c1ccc(OC)cc1", "note": "[Compound 18, ethyl(R)-1-(4-methoxyphenyl)-5-oxo-6,7-dihydro-1H,5H-pyrazolo[1,2-a]pyrazole-2-carboxylate]", "viability at 80 µM": 349}, {"compound": "COC(=O)[C@H]1N[C@@H](c2ccccc2)[C@@H]([N+](=O)[O-])[C@@H]1c1ccccc1", "note": "[Compound 20, methyl(2S,3R,4S,5S)-4-nitro-3,5-diphenylpyrrolidine-2-carboxylate]", "viability at 80 µM": 344}, {"compound": "CCOC(=O)C1=CN2C(=O)CC(C)(C)N2C1c1ccccc1", "note": "(stereo not drawn) [Compound 22, ethyl7,7-dimethyl-5-oxo-1-phenyl-6,7-dihydro-1H,5H-pyrazolo[1,2-a]pyrazole-2-carboxyl ate]", "viability at 80 µM": 339}]}]}
